Measured values published in US20240246941A1, “SUBSTITUTED 4-(3-AMINOPROP-1-YL)AMINOQUINOLINE ANALOGS AS MODULATORS OF MELANOMA-ASSOCIATED ANTIGEN 11 UBIQUITIN LIGASE” (ST. JUDE CHILDREN'S RESEARCH HOSPITAL, INC., priority 2020, published 2024).

What follows are compounds tested against MAGE-A11:PCF11 (Homo sapiens (Human), UniProt P43364) (assay: TR-FRET single point screening at 15 μM). Conditions: single point TR-FRET screening at 15 μM against MAGE-A11:PCF11.
Assay type: binding
Design: unit not given here
Text: TR-FRET Assays and High-throughput Screen. Terbium-anti-GST antibody, 1 M Tris pH 7.5 1 M MgCl2 and 1 M DTT were purchased from Invitrogen (Carlsbad, CA), BSA was purchased from Sigma (St. Louis, MO). Dimethyl sulfoxide (DMSO) was purchased from Fisher Scientific (Pittsburgh, PA). Black 384-well low volume plates and 384-well polypropylene compound plates were purchased from Corning Incorporated (Tewksbury, MA). The St. Jude FDA drug and Bioactive library (11,293 chemicals), Drug-like library (10,073 chemicals) and Lead-like library (10,041 chemicals) were custom assembled and purchased from commercial sources including Sigma, Microsource (Gaylordsville, CT), selleckchem (Houston, TX), ChemDiv (San Diego, CA), ChemBridge (San Diego, CA), Enamine (Monmouth Jct., NJ), and Life Chemicals (Niagara-on-the-Lake, ON, Canada). They were arrayed (10 mM in DMSO) in 384-well polypropylene compound plates with columns 1, 2, 13 and 14 empty which were reserved for controls.
The TR-FRET assay buffer with a formula of 50 mM Tris pH 7.5, 20 mM MgCl2, 0.1 mg/ml BSA and 1 mM DTT was freshly prepared before each experiment. All TR-FRET assays were performed in black 384-well plates with 20 μl/well assay volume in the TR-FRET assay buffer at room temperature (approximately 25° C.). All peptides or compounds were solubilized in DMSO. To test the competitive activity of peptides or compounds against the interaction between GST-MAGEA11 MHD and FAM-PCF11_4 peptide, 10 μl/well peptide or compound at specified concentration was dispensed into a black 384-well low volume plate, followed by 5 μl/well FAM-PCF11_4 (800 nM), 5 μl/well Tb-anti-GST (20 nM) and GST-MAGEA11 MHD (20 nM). The assay components in each well was then mixed by shaking the plate on an IKA MTS 2/4 digital microtiter plate shaker (IKA Works; Wilmington, NC, USA) at 900 RPM for 1 minute. The plate was further centrifuged in an Eppendorf 5810 centrifuge with an A-4-62 swing-bucket rotor (Eppendorf AG, Hamburg, Germany) at 201 g (1000 rpm) for 30 seconds. The plate was then incubated for 90 min with a lid to avoid light exposure to the assay components. After incubation, the fluorescent emission signals at 520 nm and 490 nm channels of individual wells were measured with a PHERAstar FS plate reader (BMG Labtech; Durham, NC, USA) by using a 340 nm excitation filter, 100 μs delay time, and 200 μs integration time. The TR-FRET fluorescence emission ratio (TR-FRET signal) for each well was presented as 10 000×520 nm/490 nm, which was used directly for curve fitting, or further converted to % Inhibition based on the respective positive and negative controls. The graphic software GraphPad Prism 4.81 (GraphPad Software; La Jolla, CA, USA) was used to generate curves and derive IC50 values of tested peptides or compounds, if applicable.
TR-FRET screen for identifying MAGEA11 small molecule inhibitors was performed as follows. The primary one-concentration screening and subsequent 10 or 20-concentration dose response tests were accomplished with an automated High Throughput Screening system (HighRes Biosolutions, Beverly, MA)^30. In the primary screening, 15 μl/well FAM-PCF11_4 (267 nM) was first dispensed with a Multidrop Combi Reagent Dispenser (Thermo Fisher Scientific, Waltham, MA) to black 384-well low volume assay plates. The plates were spun down with a Velocity11 VSpin microplate centrifuge (Agilent Technologies, Santa Clara, CA). 30 nl/well of 10 mM compound/DMSO solutions, or DMSO alone, were transferred from compound plates (the St. Jude FDA drug and bioactive library, Drug-like library and Lead-like library) or a control plate to the assay plates with a Pin Tool (V&P Scientific, San Diego, CA). The compounds were arrayed in columns 3 to 12 and columns 15 to 24 of compound plates. The controls were arrayed in columns 1, 2, 13 and 14 of a compound plate. […]

Sequence of MAGE-A11:PCF11 (P43364 218-429): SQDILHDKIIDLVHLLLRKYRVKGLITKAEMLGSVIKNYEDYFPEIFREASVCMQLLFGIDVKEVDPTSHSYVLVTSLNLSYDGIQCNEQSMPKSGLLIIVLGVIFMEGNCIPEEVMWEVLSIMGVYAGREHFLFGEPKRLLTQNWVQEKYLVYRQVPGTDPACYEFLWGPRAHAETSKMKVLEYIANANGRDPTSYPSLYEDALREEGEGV

Compared with `O=[N+]([O-])c1ccc(CN(CCCCNc2ccnc3cc(Cl)ccc23)Cc2ccccc2)cc1` [SJ000361202], `Cc1ccc(F)cc1CN(CCCCNc1ccnc2cc(Cl)ccc12)Cc1ccccc1` [SJ000520449] is higher in TR-FRET signal: 15.25 for the first, 42.32 for the second.

First: COc1ccc(F)cc1CN1CCC(Nc2ccnc3cc(Cl)ccc23)CC1 [SJ000357493]
Second: Fc1ccc(CN2CCC(Nc3ccnc4cc(Cl)ccc34)CC2)cc1F [SJ000523089]
The TR-FRET signal of the first is higher: 6.153 for the first, −1.958 for the second.

Going from `O=C(O)c1ccccc1CN1CCC(Nc2ccnc3cc(Cl)ccc23)CC1` [SJ000523098] to `CN1CCN(c2c(C(=O)c3ccccc3)cnc3ccc(Cl)cc23)CC1` [SJ000247338], the TR-FRET signal falls from −2.194 to −5.573.

Going from `COC(=O)CN1CCN(c2cc(C)nc3ccccc23)C(C)C1=O` (centres unmarked) [SJ000516812] to `CCOC(=O)c1cnc2ccc(OC)cc2c1N1CCN(C)CC1` [SJ000279507], the TR-FRET signal falls from 3.503 to −2.791.

Going from `CCCN(CCCNc1c2ccc(Cl)cc2nc2ccc(OC)cc12)Cc1ccccc1[N+](=O)[O-]` [SJ000520947] to `CCCN(CCCNc1c2ccc(Cl)cc2nc2ccc(OC)cc12)Cc1ccccn1` [SJ000520919], the TR-FRET signal rises from −228.3 to −146.2.

Going from `O=S(=O)(c1ccccc1)c1cnc2ccc(F)cc2c1N1CCN(Cc2ccccc2)CC1` [SJ000247257] to `COc1ccc2ncc(S(=O)(=O)c3ccccc3)c(N3CCN(Cc4ccccc4)CC3)c2c1` [SJ000247248], the TR-FRET signal falls from −62.28 to −71.16.

Going from `Cc1ccc(S(=O)(=O)c2cnc3ccc(C)cc3c2N2CCN(c3ccc(F)cc3)CC2)cc1` [SJ000117058] to `CCN1CCN(c2c(S(=O)(=O)c3ccc(C)c(C)c3)cnc3ccc(OC)cc23)CC1` [SJ000247335], the TR-FRET signal falls from −4.068 to −4.579.

First: CCCNCCCNc1c2ccc(Cl)cc2nc2ccc(OC)cc12 [SJ000361096]
Second: CCCN(CCCNc1c2ccc(Cl)cc2nc2ccc(OC)cc12)Cc1ccc(OC)c(OC)c1 [SJ000520957]
The TR-FRET signal of the first is lower: −498.5 for the first, −175.5 for the second.

Compared with `O=C(CN1CCN(C(=O)c2ccccc2)CC1)Nc1c2c(nc3ccccc13)N(c1cccc(Cl)c1)CC2` [SJ000111683], `CCc1ccc2ncc(S(=O)(=O)c3ccc(C)c(C)c3)c(N3CCN(CC)CC3)c2c1` [SJ000247334] is higher in TR-FRET signal: −264.3 for the first, −4.712 for the second.

Same assay, conditions: single point TR-FRET screening of quinoline compounds against MAGE-A11:PCF11; 15 μM

First: CCCN(CCCNc1ccnc2cc(Cl)ccc12)Cc1cc(OC(F)(F)F)ccc1OC [SJ000523011]
Second: CCCN(CCCNc1ccnc2cc(C(F)(F)F)ccc12)Cc1ccc(OC)c(OC)c1 [SJ000523079]
The TR-FRET signal of the first is higher: 15.67 for the first, 14.66 for the second.

First: COc1cccc(CN(CCCNc2ccnc3cc(Cl)ccc23)Cc2ccccc2)c1 [SJ000361188]
Second: Cc1cccc(CN(CCCNc2ccnc3cc(Cl)ccc23)Cc2ccccc2)c1 [SJ000361183]
The TR-FRET signal of the first is lower: −9.05 for the first, 6.02 for the second.

Compared with `FC(F)(F)Oc1cccc(CN(CCCNc2ccnc3cc(Cl)ccc23)Cc2ccccc2)c1` [SJ000520464], `Fc1ccc(CN(CCCNc2ccnc3cc(Cl)ccc23)Cc2ccccc2)cc1` [SJ000522721] is lower in TR-FRET signal: 27.78 for the first, 18.08 for the second.

Compared with `COc1cccc(F)c1CN(CCCNc1ccnc2cc(Cl)ccc12)Cc1ccccc1` [SJ000357500], `Clc1ccc2c(NCCCN(Cc3ccccc3)Cc3ccco3)ccnc2c1` [SJ000312668] is higher in TR-FRET signal: −2.857 for the first, 0.5217 for the second.

Going from `CCCN(CCCNc1ccnc2cc(Cl)ccc12)Cc1cccnc1` [SJ000357446] to `CCCN(CCCNc1ccnc2cc(C(F)(F)F)ccc12)Cc1cc(C)ccc1C` [SJ000523082], the TR-FRET signal rises from 7.809 to 21.74.

Compared with `CCCN(CCCNc1c2ccc(Cl)cc2nc2ccc(OC)cc12)Cc1cccc(OC(F)(F)F)c1` [SJ000522967], `CCCN(CCCNc1c2ccc(Cl)cc2nc2ccc(OC)cc12)Cc1ccccc1C(F)(F)F` [SJ000520928] is lower in TR-FRET signal: 14.48 for the first, 14.17 for the second.

Compared with `c1ccc(CCc2ccc3c(NCCCNCc4ccco4)ccnc3c2)cc1` [SJ000311254], `O=[N+]([O-])c1ccccc1CN(CCCNc1ccnc2cc(Cl)ccc12)Cc1ccccc1` [SJ000361177] is higher in TR-FRET signal: 15.95 for the first, 16.42 for the second.
